Source: PMC11802874, “The hypolipidemic effect of MI-883, the combined CAR agonist/ PXR antagonist, in diet-induced hypercholesterolemia model” (Nature Communications, 2025)
Several values for one entry are separate records, joined by “and”; a condition that tells them apart may be missing. Identical values can stand only once.

Tested on: HepaRG cells
Test: RT-qPCR mRNA expression in differentiated HepaRG cells
[1] = single agent 5: MI-883 5, Rif (5 μM) alone

Text: HepaRG cells from Biopredic (Rennes, France) were cultivated and differentiated on the 12-well plates. […] Several batches of HepaRG KO CAR (CAR Knockout HepaRG™ Cells, MTOX1012-1VL, RRID:CVCL_B6AA) and PXR Knockout HepaRG™ Cells, MTOX1011-1VL, RRID:CVCL_B6AS) cells have been obtained from Sigma-Aldrich/Merck (Darmstadt, Germany) and cultivated according to the provider’s protocols. […] Experiments with HepaRG KO PXR and HepaRG KO CAR cells have been performed in duplicates at least in two independent experiments.
RT-qPCR was used to examine gene expression in 2D and 3D PHH, HepaRG cells, or in mouse liver or intestine (ileum) samples as we have described before[60]–[62].
All qRT-qPCR experiments including Trizol reagent (Life Technologies) total RNA isolation, reverse-transcription using a random hexaprimer, and the MMLV Reverse Transcriptase Kit (ThermoFisher Scientific) we have described before^19. qPCR was performed using TaqMan Fast Advanced Master Mix with TaqMan probes (ThermoFisher Scientific). […] The delta-delta method was used for gene expression quantification normalized to at least two reference genes. Three technical replicates were used for each reaction considering the MIQE guidelines. Data are presented as fold induction to vehicle-treated cells/animals.

NC(=O)c1cc(Cn2cc(-c3c(-c4ccc(Cl)cc4)nc4cc(F)ccn34)nn2)ccc1Cl [MI-883, 2-chloro-5-((4-(2-(4-chlorophenyl)-7-fluoroimidazo[1,2-a]pyridin-3-yl)-1H-1,2,3-triazol-1-yl)methyl)benzamide]
HMGCR expression relative to control (replicates) (MI-883 20 μM + Rif (5 μM)): 0.8382 and 1.516 and 1.756 | HMGCS2 expression relative to control (replicates) (MI-883 20 μM + Rif (5 μM)): 1.0412 and 1.1415 and 0.9223 | PCSK9 expression relative to control (replicates) (MI-883 20 μM + Rif (5 μM)): 1.334 and 1.4007 and 1.046 | CYP7A1 mRNA fold (Fig. 3f,g sheet), replicates (MI-883 1): 0.5746 and 0.6713 and 0.8972 and 0.7445 | INSIG1 mRNA fold (Fig. 3f,g sheet), replicates (MI-883 1): 1.005 (2×) and 0.8339 | LDLR mRNA fold (Fig. 3f,g sheet), replicates (MI-883 1): 1.161 and 1.262 and 0.9041 and 0.8572 | SREBF1 mRNA fold (Fig. 3f,g sheet), replicates (MI-883 1): 0.7942 and 0.8996 and 0.7218 | SREBF2 mRNA fold (Fig. 3f,g sheet), replicates (MI-883 1): 0.6439 and 0.7635 and 0.7748 and 1.065 and 0.7449 and 1.037 | mRNA fold, Fig. 3b sheet, first block (CYP3A4), replicates (MI-883 1 (µM), 24 h): 0.8362 and 0.801 and 0.9683 and 1.172 and 0.7446 | mRNA fold, Fig. 3b sheet, second block (gene not given; CYP2B6), replicates (MI-883 1 (µM), 24 h): 2.928 and 2.816 and 2.017 and 3.044 and 1.065 | mRNA fold, Fig. 3b sheet, first block (CYP3A4), replicates (MI-883 1 + Rif (5 μM)): 1.353 and 3.215 and 5.541 | mRNA fold, Fig. 3b sheet, second block (CYP2B6), replicates (MI-883 1 + Rif (5 μM)): 2.0016 and 2.546 and 5.3 | CYP7A1 mRNA fold (Fig. 3f,g sheet), replicates (MI-883 5): 0.5588 and 0.4759 and 0.4175 | INSIG1 mRNA fold (Fig. 3f,g sheet), replicates (MI-883 5): 1.268 and 1.368 and 1.1831 | LDLR mRNA fold (Fig. 3f,g sheet), replicates (MI-883 5): 1.377 and 1.27 and 1.084 | SQLE mRNA fold (Fig. 3f,g sheet), replicates (MI-883 5): 1.181 (2×) and 1.026 | SREBF1 mRNA fold (Fig. 3f,g sheet), replicates (MI-883 5): 0.6652 and 0.6777 and 0.7568 | SREBF2 mRNA fold (Fig. 3f,g sheet), replicates (MI-883 5): 0.5404 and 1.004 and 0.7053 | mRNA fold, Fig. 3b sheet, first block (CYP3A4), replicates (MI-883 5 + Rif (5 μM)): 1.354 and 1.7483 and 1.162 | mRNA fold, Fig. 3b sheet, second block (CYP2B6), replicates (MI-883 5 + Rif (5 μM)): 2.182 and 1.817 | CYP7A1 mRNA fold (Fig. 3f,g sheet), replicates (MI-883 10): 0.4275 and 0.3155 and 0.5022 and 0.4393 | INSIG1 mRNA fold (Fig. 3f,g sheet), replicates (MI-883 10): 1.223 and 1.042 and 1.225 and 1.172 | LDLR mRNA fold (Fig. 3f,g sheet), replicates (MI-883 10): 1.481 and 1.183 | SQLE mRNA fold (Fig. 3f,g sheet), replicates (MI-883 10): 1.043 and 1.272 and 0.888 and 1.111 and 1.1255 | SREBF1 mRNA fold (Fig. 3f,g sheet), replicates (MI-883 10): 0.5595 and 0.8022 (2×) and 0.6597 | SREBF2 mRNA fold (Fig. 3f,g sheet), replicates (MI-883 10): 0.6518 and 0.837 and 1.166 and 1.224 and 0.9179 and 0.9421 | mRNA fold, Fig. 3b sheet, first block (CYP3A4), replicates (MI-883 10): 0.3642 and 0.6511 and 0.7047 and 0.8281 and 0.7972 and 0.5808 | mRNA fold, Fig. 3b sheet, second block (CYP2B6), replicates (MI-883 10): 2.037 and 2.07 and 1.475 and 2.671 and 1.239 and 0.7631 | mRNA fold, Fig. 3b sheet, first block (CYP3A4), replicates (MI-883 10 + Rif (5 μM)): 0.875 and 1.224 and 1.6089 and 0.7778 | mRNA fold, Fig. 3b sheet, second block (CYP2B6), replicates (MI-883 10 + Rif (5 μM)): 1.519 and 3.467 and 2.287 and 1.0661 | CYP7A1 mRNA fold (Fig. 3f,g sheet), replicates (MI-883 20): 0.3598 and 0.7856 | INSIG1 mRNA fold (Fig. 3f,g sheet), replicates (MI-883 20): 1.146 and 1.273 | LDLR mRNA fold (Fig. 3f,g sheet), replicates (MI-883 20): 1.442 and 1.216 and 1.519 | SQLE mRNA fold (Fig. 3f,g sheet), replicates (MI-883 20): 1.646 and 1.048 | SREBF1 mRNA fold (Fig. 3f,g sheet), replicates (MI-883 20): 0.7299 and 0.7553 | SREBF2 mRNA fold (Fig. 3f,g sheet), replicates (MI-883 20): 1.072 and 1.4 and 1.1431 | mRNA fold, Fig. 3b sheet, first block (CYP3A4), replicates (MI-883 20): 0.6466 and 0.6905 and 0.8398 and 0.439 | mRNA fold, Fig. 3b sheet, second block (CYP2B6), replicates (MI-883 20): 1.395 and 1.4687 and 2.208 and 1.5457 | mRNA fold, Fig. 3b sheet, first block (CYP3A4), replicates (MI-883 20 + Rif (5 μM)): 0.5897 and 1.016 | mRNA fold, Fig. 3b sheet, second block (CYP2B6), replicates (MI-883 20 + Rif (5 μM)): 0.9269 and 2.43 and 1.46 | CYP7A1 mRNA in HepaRG cells (MI-883: in the absence and presence of rifampicin): significant downregulation | rifampicin induction of SQLE mRNA in HepaRG cells (MI-883 at 1 μM, SPA70): abrogated | CYP2B6 mRNA, RT-qPCR, HepaRG (Fig. 1f), replicates (Phenobarbital 500 μM, CITCO 1 μM, MI 883 1 μM, ctrl = 1): 4.75 and 4.15 and 4.1 | ABCC4 and UGT1A1 genes in HepaRG cells (Supplementary Fig. 10): upregulated | mRNA fold, Fig. 3b sheet, first block (CYP3A4), replicates [1]: 0.6927 and 0.6641 and 0.6779 | mRNA fold, Fig. 3b sheet, second block (CYP2B6), replicates [1]: 3.953 and 2.541 and 3.216
